Experimental data from ChEMBL document CHEMBL1759965, “Synthesis and pharmacological evaluation of bivalent antagonists of the nociceptin opioid receptor” (Eur J Med Chem, 2011).
Active and inactive are the calls of the source. The calls are words filed in the database; no cut-off is given here.

Assays:
[1] = target: Delta-type opioid receptor (Homo sapiens) (UniProt P41143); experiment: Displacement of [3H]-naltrindole from human delta opioid receptor expressed in human HEK293 cells after 2 hrs by scintillation counting; type: cell-based
Mu-type opioid receptor = Mu-type opioid receptor (Homo sapiens, UniProt P35372); experiment: Displacement of [3H]-naltrindole from human mu opioid receptor expressed in CHO cells after 2 hrs by scintillation counting; type: cell-based
Homo sapiens [2] = organism: Homo sapiens; experiment: Selectivity ratio of IC50 for human kappa opioid receptor to IC50 for human NOP receptor
Homo sapiens [3] = organism: Homo sapiens; experiment: Selectivity ratio of IC50 for human mu opioid receptor to IC50 for human NOP receptor
Nociceptin receptor [4] = target: T1, Nociceptin receptor (Homo sapiens, UniProt P41146); experiment: Antagonist activity at human NOP receptor expressed in human HEK293 cells assessed as inhibition of GTPgammaS binding in presence of 300 nM GDP relative to control; type: functional, cell-based
Nociceptin receptor [5] = target: T1, Nociceptin receptor; experiment: Displacement of [125I]Tyr14-nociceptin from human NOP receptor expressed in human HEK293 cells after 90 mins by scintillation counting
[6] = target: Kappa-type opioid receptor (Homo sapiens, UniProt P41145); experiment: Displacement of [3H]-diprenorphine from human kappa opioid receptor expressed in human HEK293 cells after 2 hrs by scintillation counting
Chain of Kappa-type opioid receptor (P41145 whole entry): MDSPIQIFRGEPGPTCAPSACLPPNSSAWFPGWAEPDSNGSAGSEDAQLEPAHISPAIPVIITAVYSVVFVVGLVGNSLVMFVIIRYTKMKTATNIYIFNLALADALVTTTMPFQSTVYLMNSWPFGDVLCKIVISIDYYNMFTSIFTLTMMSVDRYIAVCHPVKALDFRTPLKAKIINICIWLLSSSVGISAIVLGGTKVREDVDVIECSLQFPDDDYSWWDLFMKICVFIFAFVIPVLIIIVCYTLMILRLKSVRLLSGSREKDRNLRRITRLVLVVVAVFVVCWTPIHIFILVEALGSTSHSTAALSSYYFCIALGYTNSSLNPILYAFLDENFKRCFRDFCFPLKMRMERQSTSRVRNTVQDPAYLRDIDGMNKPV

Chain of Delta-type opioid receptor (Homo sapiens) (P41143 whole entry): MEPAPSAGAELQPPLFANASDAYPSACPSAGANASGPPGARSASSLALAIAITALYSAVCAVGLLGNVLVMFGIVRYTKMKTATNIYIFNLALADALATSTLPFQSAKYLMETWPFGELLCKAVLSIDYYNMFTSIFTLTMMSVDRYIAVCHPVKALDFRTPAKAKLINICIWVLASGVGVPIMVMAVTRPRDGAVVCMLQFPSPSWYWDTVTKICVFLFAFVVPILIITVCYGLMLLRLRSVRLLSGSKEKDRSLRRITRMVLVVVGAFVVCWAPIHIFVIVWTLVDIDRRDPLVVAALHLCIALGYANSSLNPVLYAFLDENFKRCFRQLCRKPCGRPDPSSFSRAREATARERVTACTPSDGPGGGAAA
T1 sequence (P41146 whole entry): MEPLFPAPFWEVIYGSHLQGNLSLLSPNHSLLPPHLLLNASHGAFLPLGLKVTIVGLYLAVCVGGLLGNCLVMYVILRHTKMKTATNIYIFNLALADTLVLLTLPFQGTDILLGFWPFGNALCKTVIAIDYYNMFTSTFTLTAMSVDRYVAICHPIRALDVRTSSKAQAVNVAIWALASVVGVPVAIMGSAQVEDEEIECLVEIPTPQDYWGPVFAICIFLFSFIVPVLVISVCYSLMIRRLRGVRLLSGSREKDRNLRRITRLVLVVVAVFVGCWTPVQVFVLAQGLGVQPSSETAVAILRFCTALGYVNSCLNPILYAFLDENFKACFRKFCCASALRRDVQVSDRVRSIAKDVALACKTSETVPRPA
Chain of Mu-type opioid receptor (P35372 whole entry): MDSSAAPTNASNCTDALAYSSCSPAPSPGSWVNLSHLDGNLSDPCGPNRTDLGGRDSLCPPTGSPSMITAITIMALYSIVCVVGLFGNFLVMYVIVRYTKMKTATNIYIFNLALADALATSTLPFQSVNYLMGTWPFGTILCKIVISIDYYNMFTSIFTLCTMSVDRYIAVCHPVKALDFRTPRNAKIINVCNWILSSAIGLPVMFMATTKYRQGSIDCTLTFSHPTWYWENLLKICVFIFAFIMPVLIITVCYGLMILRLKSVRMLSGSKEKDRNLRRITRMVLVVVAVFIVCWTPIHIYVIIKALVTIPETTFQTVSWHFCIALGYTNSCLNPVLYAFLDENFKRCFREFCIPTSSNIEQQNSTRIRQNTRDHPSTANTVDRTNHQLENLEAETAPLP

Row | Structure (SMILES) | Activity [1] | IC50 (Mu-type opioid receptor) | Ratio IC50 (Homo sapiens [2]) | Ratio IC50 (Homo sapiens [3]) | Activity (Nociceptin receptor [4]) | IC50 (Nociceptin receptor [5]) | IC50 [6]
1 | Cc1cc(N)c2cc(NC(=O)c3ccccc3COc3ccc(CNCCCCCCCCCCN)cc3)ccc2n1 | inactive | 1.4 µM | 86 | 13 | Active | 0.153 µM | 9.1 µM
2 | CCCCCCCNCc1ccc(OCc2ccccc2C(=O)Nc2ccc3nc(C)cc(N)c3c2)cc1 | inactive | 1.98 µM | 6.2 | 6.6 | Active | 0.668 µM | 1.85 µM
3 | Cc1cc(N)c2cc(NC(=O)c3ccccc3COc3ccc(CNCCCCCCCNCc4ccc(OCc5ccccc5C(=O)Nc5ccc6nc(C)cc(N)c6c5)cc4)cc3)ccc2n1 | inactive | 1.04 µM | 33 | 34 | Active | 0.0301 µM | 1.02 µM

Continued by falling IC50 (Mu-type opioid receptor), values first:

Row | Activity [1] | IC50 (Mu-type opioid receptor) | Ratio IC50 (Homo sapiens [2]) | Ratio IC50 (Homo sapiens [3]) | Activity (Nociceptin receptor [4]) | IC50 (Nociceptin receptor [5]) | IC50 [6] | Structure (SMILES)
4 | inactive | 2.17 µM | 13 | 11 | Active | 0.305 µM | 2.56 µM | CCCCCCCCCNCc1ccc(OCc2ccccc2C(=O)Nc2ccc3nc(C)cc(N)c3c2)cc1
5 | inactive | 1.59 µM | 27 | 39 | Active | 0.0566 µM | 1.09 µM | Cc1cc(N)c2cc(NC(=O)c3ccccc3COc3ccc(CNCCCCNCc4ccc(OCc5ccccc5C(=O)Nc5ccc6nc(C)cc(N)c6c5)cc4)cc3)ccc2n1
6 | inactive | 1.51 µM | 250 | 50 | Active | 0.03 µM | 7.51 µM | CCc1ccc(OCc2ccccc2C(=O)Nc2ccc3nc(C)cc(N)c3c2)cc1
